Entries after “also recorded” stand apart in the source; their conditions may differ.
Tests used:
[1] = system: SW1573 human lung cancer cells; assay: 2H2O stable isotope incorporation into tubulin dimers and microtubule polymers in cultured cells; type: cell-based
Method: To determine whether biosynthetic labeling with ^2H2O can reveal MTPA effects on microtubule dynamics in actively proliferating cells, SW1573 human lung cancer cells were cultured and labeled during exponential growth with culture media containing 4% ^2H2O for 2, 6, 12, 24 and 36 hr, respectively. Tubulin dimer and polymer fractions were isolated from post-nuclear supernatants, and tubulin was purified from each fraction to ≧90% purity as determine by SDS-PAGE. After acid hydrolysis, amino acids were derivatized for GC/MS analysis with negative chemical ionization, and ^2H-label incorporation into the alanine derivative was quantified as the increase over natural abundance of the (M+1) mass isotopomer (“^2H—enrichment”; FIG. 3). […] The data support that in actively dividing cells, tubulin dimers and polymers are in a kinetic equilibrium on a time scale of hours. […] This indicates a substantial inhibition of ^2H—tubulin dimer flux into polymer, reflective of the ability of paclitaxel to stabilize microtubules and thus to prevent dynamic instability.

[2] = system: SW1573 human lung cancer cells implanted into nude mice; assay: 2H label incorporation into tubulin dimers and polymers in implanted SW1573 tumors in vivo
Method: (§1) The tumors were allowed to grow to approximately 1000 mm^3 […]; mice were then injected intraperitoneally with increasing doses of paclitaxel. ^2H2O (8%) in drinking water was administered for a 24 hr period, resulting in about 5% ^2H enrichment in body water (the balance being metabolic water). Animals were sacrificed 24 hours after drug treatment, and tumor tissue was removed for analysis of ^2H—label incorporation into tubulin dimers and polymers (FIG. 4).

[3] = system: MCF-7 human breast cancer cells implanted into nude mice; assay: 2H label incorporation into tubulin dimers and polymers in implanted MCF-7 tumors in vivo
Method: as §1
Qualitatively similar effects of paclitaxel were also seen in implanted MCF-7 tumors, though the amount of ^2H—label incorporation was lower than in SW1573 tumors (FIG. 4B).

[4] = system: SW1573 human lung cancer cells implanted into nude mice; assay: Microtubule dynamics compared to de novo DNA synthesis (cell proliferation) in SW1573 tumors; type: in vivo; conditions: varying doses of paclitaxel; 2H2O for 24 hours (FIG. 5A)
From the text: (§2) Microtubule dynamics were expressed as (^2H enrichment in polymer)/(^2H enrichment in dimer). Inhibition of de novo DNA synthesis was quantified as the reduction in ^2H label incorporation into tumor cell DNA. […]
(§3) Various factors can interfere with the actions of paclitaxel in tumors, including alterations in tubulin isotype content, efflux pumps, and in vivo drug metabolism. Regardless of these factors, inhibition of microtubule dynamics, if related to the antiproliferative activity of MTPAs in vivo, should correlate with inhibition of cell proliferation. […] Thus, the inhibition of microtubule dynamics appeared to have a measurable impact on and relation to the in vivo antiproliferative action of MTPAs.

[5] = system: MCF-7 human breast cancer cells implanted into nude mice; assay: Microtubule dynamics compared to de novo DNA synthesis (cell proliferation) in MCF-7 tumors; type: in vivo; conditions: varying doses of paclitaxel; 2H2O for 24 hours (FIG. 5B)
From the text: as §2, §3

microtubules = conditions: fold lower than maximum tolerated therapeutic dose
[6] = system: sciatic nerve microtubules; assay: Densitometric analysis of free tubulin and microtubule abundance in sciatic nerve; conditions: tumor-bearing mice (FIG. 6B)
Method: (§4) In order to evaluate neurotoxic effects of paclitaxel, the sciatic nerve was isolated from tumor-bearing mice and ^2H label incorporation into free tubulin was compared with ^2H label incorporation into polymerized microtubuies (FIG. 6). […] To explore this effect further, net changes in the abundance of unpolymerized free tubulin and microtubules was assessed by densitometric analysis (FIG. 6B).

[7] = system: sciatic nerve microtubules; assay: Sciatic nerve microtubule dynamics (2H label incorporation into free tubulin and polymerized microtubules); conditions: higher doses of paclitaxel; tumor-bearing mice (FIG. 6A)
Method: as §4

[8] = at ≧5 mg/kg i.p., 2H2O for 24 hours (FIG. 4A)
[9] = increasing doses i.p., 24 hr 2H2O (8%) in drinking water
[10] = at ≧5 mg/kg i.p., 2H2O for 24 hours (FIG. 4B)

## CC(=O)O[C@H]1C(=O)[C@@]2(C)[C@H]([C@H](OC(=O)c3ccccc3)[C@]3(O)C[C@H](OC(=O)[C@H](O)[C@@H](NC(=O)c4ccccc4)c4ccccc4)C(C)=C1C3(C)C)[C@]1(OC(C)=O)CO[C@@H]1C[C@@H]2O [paclitaxel]
[1]; 0.4 µM paclitaxel, 4% 2H2O, 36 hours (FIG. 3B)
  2H-enrichment in labeled polymers: reduced ^2H-enrichment in labeled polymers
[1]; media containing 4% 2H2O, up to 36 hr
  reduction of rate of 2H incorporation into polymers compared to rate of label incorporation into the dimer: 75%
[2]; [8]
  de novo synthesis of tubulin dimer: increased de novo synthesis of tubulin dimer
  label incorporation into polymer: inhibited label incorporation into polymer
[2]; [9]
  fractional synthesis of tubulin dimers: fractional synthesis of tubulin dimers increased
  incorporation of 2H-tubulin into microtubules: decreased incorporation of ^2H—tubulin into microtubules in a dose-dependent manner
[3]; 5 and 10 mg/kg doses, compared with SW1573 tumors
  paclitaxel-dependent reduction of 2H-label polymer: less pronounced, albeit statistically significant
[3]; [10]
  de novo synthesis of tubulin dimer: increased de novo synthesis of tubulin dimer
  label incorporation into polymer: inhibited label incorporation into polymer
[3]; increasing doses i.p., 24 hr 2H2O
  upregulation of tubulin fractional synthesis over baseline: no significant paclitaxel-induced upregulation of tubulin fractional synthesis over baseline
[4]
  relation between inhibition of microtubule dynamics and inhibition of de novo DNA synthesis (tumor cell proliferation): strong relationship; also recorded: strong correlation between inhibition of microtubule dynamic instability and reduction in cell proliferation
[5]
  relation between inhibition of microtubule dynamics and inhibition of de novo DNA synthesis (tumor cell proliferation): strong relationship; also recorded: strong correlation between inhibition of microtubule dynamics and reduction in cell proliferation
microtubules
  doses with significant effects on microtubule dynamics, relative to the maximum tolerated therapeutic dose: up to 30 fold
[6]
  amount of free tubulin dimers (sciatic nerve, densitometry): slight decrease in free tubulin dimers
[7]
  2H label incorporation into polymers (sciatic nerve): increased the label incorporation into polymers
  2H labeling of free tubulin (sciatic nerve): slightly decreasing labeling of free tubulin
